Data reported in patent US20120004282A1, “RNA Interference Mediated Inhibition of the Intercellular Adhesion Molecule 1 (ICAM-1) Gene Expression Using Short Interfering Nucleic Acid (siNA)” (Merck Sharp & Dohme Corp,, priority 2009, published 2012).
[invAb] = inverted abasic unit; d = 2'-deoxy (DNA); m = 2'-O-methyl; r = 2'-OH (RNA); f = 2'-fluoro

Tested on: ICAM-1 mRNA
Assay: ICAM-1 mRNA knock-down in transfected Calu-1 cells (Taqman RT-PCR)
Format: cell-based, human
Details: Calu-1 cells, 10 nM siNA, 24 hrs post-transfection, mean ± S.D., relative to non-targeting control
Protocol: Calu-1 (human; ATCC cat# HTB-54): Cells were cultured at 37° C. in the presence of 5% CO2 and grown in McCoy's 5a medium supplemented with fetal bovine serum at a final concentration of 10% and 100 μg/mL of streptomycin and 100 U/mL penicillin.
All transfections were performed using RNAiMax (Invitrogen Cat# 13778-150) as per the manufacturer's instructions.
Calu-1 cells were plated in all wells of a tissue-culture treated, 96-well plate at final counts of 5,000 cells/well in 100 μL of appropriate culture media. Cells were cultured for 24 hours after plating at 37° C. in the presence of 5% CO2.
After 24 hours, complexes containing siNA and RNAiMax were created as follows. A solution of RNAiMax diluted 33-fold in OPTI-MEM was prepared. In parallel, solutions of the siNAs for testing were prepared to a final concentration of 120 nM in OPTI-MEM. After incubation of RNAiMax/OPTI-MEM solution at room temperature for 5 min, an equal volume of the siNA solution and the RNAiMax solution were added together for each of the siNAs. […] This solution was incubated at room temperature for 20 minutes. After incubation, 20 uL of the solution was added to each of the relevant wells. The final concentration of siNA in each well was 10 nM and the final volume of RNAiMax in each well was 0.3 uL.
The time of incubation with the RNAiMax-siNA complexes was 24 hours, unless otherwise indicated. There was no change in media between the transfection and harvesting of the cells unless otherwise indicated.
Dose response curves were carried out in a similar fashion in 96-well plates, while maintaining a constant amount of RNAiMax in each transfection.
RNA was extracted from a 96-well plate using the TaqMan® Gene Expression Cells-to-CT™ Kit (Cat# 4399002) with a modified protocol. Briefly, a 60 uL (1 plate) or 110 uL (2 plates) of the Lysis Solution with DNase I was dispensed into each well of the Lysis Buffer Plate (twin.tec full skirt plate). The lysis buffer and stop plates were stored at 4° C. until the cells were washed.
The plate was spun at 1100 rpm for 5 minutes. The culture medium was aspirated and discarded from the wells of the culture plate. The lysis was performed automatically using a BioMek FX instrument and method. After the Biomek method was completed, the lysis plate was incubated for 2 min. at room temperature. The lysis plate can be stored for 2 hours at 4° C., or at −20° C. or −80° C. for two months.
Each well of the reverse transcription plate required 10 uL of 2× reverse transcriptase Buffer, 1 uL of 20× reverse transcription enzyme and 2 uL of nuclease-free water. The reverse transcription master mix was prepared by mixing 2× reverse transcription buffer, 20× reverse transcription enzyme mix, and nuclease-free water. 13 uL of the reverse transcription master mix was dispensed into each well of the reverse transcription plate (semi-skirted). A separate reverse transcription plate was prepared for each cell plate. The plate was loaded onto a Biomek NX or Biomek FX Dual-96 and the Biomek method was run. The program is programmed to automatically added 7 uL of lysate from the cell lysis procedure described above into each well of the reverse transcription plate. The plate is sealed and spun on a centrifuge (1000 rpm for 30 seconds) to settle the contents to the bottom of the reverse transcription plate. The plate is placed in a thermocycler at 37° C. for 60 min, 95° C. for 5 min, and 4° C. until the plate is removed from the thermocycler. Upon removal, if not used immediately, the plate was frozen at −20° C.
A series of probes and primers were used to detect the various mRNA transcripts of the genes of ICAM-1 and ICAM-2 in human cell lines (see Table 2). All the Taqman probes and primers for the experiments here-in described were supplied as pre-validated sets by Applied Biosystems, Inc., (see Table 2). The assays were performed on an ABI 7900 instrument, according to the manufacturer's instructions. […]

| Substance | % KD Human [%] |
| --- | --- |
| 29289-DC: siNA duplex, ICAM-1 target site 2152 (h); sense B GGAGcAAGAcucAAGAcAu TTB; antisense AUGucuuGAGucuuGcuccUU (sense GGAGCAAGACUCAAGACAUTT; antisense AUGUCUUGAGUCUUGCUCCUU; sense: DNA at AGT, 2'-fluoro at CU, [invAb] at 5' end, 3' end, backbone not given here; antisense: sugars from the 5' end rrrffffmmmffffmffffmm, backbone not given here) | 78 ± 15 |
| 48709-DC: siNA duplex, ICAM-1 target site 988 (m); sense B GGAccuuAAcAGucuAcAA TTB; antisense UUGuAGAcuGuuAAGGuccUU (sense GGACCUUAACAGUCUACAATT; antisense UUGUAGACUGUUAAGGUCCUU; sense: DNA at AGT, 2'-fluoro at CU, [invAb] at 5' end, 3' end, backbone not given here; antisense: sugars from the 5' end rrrfmmmffmffmmmmfffmm, backbone not given here) | 32 ± 14 |
| 48699-DC: siNA duplex, ICAM-1 target site 668 (m); sense B GcuGGcAuuGuucucuAAu TTB; antisense AUUAGAGAAcAAuGccAGcUU (sense GCUGGCAUUGUUCUCUAAUTT; antisense AUUAGAGAACAAUGCCAGCUU; sense: DNA at AGT, 2'-fluoro at CU, [invAb] at 5' end, 3' end, backbone not given here; antisense: sugars from the 5' end rrrmmmmmmfmmfmffmmfmm, backbone not given here) | 25 ± 9 |
| 48711-DC: siNA duplex, ICAM-1 target site 1577 (m); sense B cGuGAuGGcAGccucuuAu TTB; antisense AUAAGAGGcuGccAucAcGUU (sense CGUGAUGGCAGCCUCUUAUTT; antisense AUAAGAGGCUGCCAUCACGUU; sense: DNA at AGT, 2'-fluoro at CU, [invAb] at 5' end, 3' end, backbone not given here; antisense: sugars from the 5' end rrrmmmmmffmffmffmfmmm, backbone not given here) | 42 ± 13 |
| 48717-DC: siNA duplex, ICAM-1 target site 911 (m); sense B GGuGAcuGAGGAGuucGAc TTB; antisense GUCGAAcuccucAGucAccUU (sense GGUGACUGAGGAGUUCGACTT; antisense GUCGAACUCCUCAGUCACCUU; sense: DNA at AGT, 2'-fluoro at CU, [invAb] at 5' end, 3' end, backbone not given here; antisense: sugars from the 5' end rrrmmmffffffmmffmffmm, backbone not given here) | −9 ± 17 |
| 48718-DC: siNA duplex, ICAM-1 target site 1938 (h); sense B cucuuccucGGccuucccA TTB; antisense UGGGAAGGccGAGGAAGAGUU (sense CUCUUCCUCGGCCUUCCCATT; antisense UGGGAAGGCCGAGGAAGAGUU; sense: sugars from the 5' end f9 d2 f7 d3, [invAb] at 5' end, 3' end, backbone not given here; antisense: sugars from the 5' end r4 m4 f2 m11, backbone not given here) | 19 ± 11 |
| 48724-DC: siNA duplex, ICAM-1 target site 560 (h); sense B cuGAGcAAuGuGcAAGAAG TTB; antisense CUUcuuGcAcAuuGcucAcUU (sense CUGAGCAAUGUGCAAGAAGTT; antisense CUUCUUGCACAUUGCUCACUU; sense: DNA at AGT, 2'-fluoro at CU, [invAb] at 5' end, 3' end, backbone not given here; antisense: sugars from the 5' end rrrfffmfmfmffmfffmfmm, backbone not given here) | 34 ± 8 |
| 48708-DC: siNA duplex, ICAM-1 target site 1762 (m); sense B AcAGcAuuuAcccucAGcc TTB; antisense GGCuGAGGGuAAAuGcuGuUU (sense ACAGCAUUUACCCUCAGCCTT; antisense GGCUGAGGGUAAAUGCUGUUU; sense: DNA at AGT, 2'-fluoro at CU, [invAb] at 5' end, 3' end, backbone not given here; antisense: sugars from the 5' end rrrfmmmmmfmmmfmffmfmm, backbone not given here) | 22 ± 9 |
| 29290-DC: siNA duplex, ICAM-1 target site 1226 (h); sense B cAGAcAGuGAccAucuAcA TTB; antisense UGUAGAuGGucAcuGucuGUU (sense CAGACAGUGACCAUCUACATT; antisense UGUAGAUGGUCACUGUCUGUU; sense: DNA at AGT, 2'-fluoro at CU, [invAb] at 5' end, 3' end, backbone not given here; antisense: sugars from the 5' end rrrmmmfmmffmffmfffmmm, backbone not given here) | 47 ± 18 |
| 48706-DC: siNA duplex, ICAM-1 target site 250 (m); sense B GcuuGGAGAcucAGuGGcu TTB; antisense AGCcAcuGAGucuccAAGcUU (sense GCUUGGAGACUCAGUGGCUTT; antisense AGCCACUGAGUCUCCAAGCUU; sense: DNA at AGT, 2'-fluoro at CU, [invAb] at 5' end, 3' end, backbone not given here; antisense: sugars from the 5' end rrrfmffmmmfffffmmmfmm, backbone not given here) | 23 ± 31 |
| 48716-DC: siNA duplex, ICAM-1 target site 368 (m); sense B GcAGucGuccGcuuccGcu TTB; antisense AGCGGAAGcGGAcGAcuGcUU (sense GCAGUCGUCCGCUUCCGCUTT; antisense AGCGGAAGCGGACGACUGCUU; sense: DNA at AGT, 2'-fluoro at CU, [invAb] at 5' end, 3' end, backbone not given here; antisense: sugars from the 5' end rrrmmmmmfmmmfmmffmfmm, backbone not given here) | 22 ± 6 |
| 48727-DC: siNA duplex, ICAM-1 target site 1521 (h); sense B GGGAuuGuccGGGAAAcuG TTB; antisense CAGuuucccGGAcAAucccUU (sense GGGAUUGUCCGGGAAACUGTT; antisense CAGUUUCCCGGACAAUCCCUU; sense: DNA at AGT, 2'-fluoro at CU, [invAb] at 5' end, 3' end, backbone not given here; antisense: sugars from the 5' end rrrffffffmmmfmmffffmm, backbone not given here) | 23 ± 6 |
| 48723-DC: siNA duplex, ICAM-1 target site 390 (h); sense B cuGGcAAuGcccAGAcAuc TTB; antisense GAUGucuGGGcAuuGccAGUU (sense CUGGCAAUGCCCAGACAUCTT; antisense GAUGUCUGGGCAUUGCCAGUU; sense: DNA at AGT, 2'-fluoro at CU, [invAb] at 5' end, 3' end, backbone not given here; antisense: sugars from the 5' end rrrmfffmmmfmffmffmmmm, backbone not given here) | 68 ± 12 |
